The NIST ThermoML archive (doi:10.1021/acs.jced.6b00268)
Numbers after ± are expanded uncertainties.

How the values were obtained:
[1] = Crystal; DTA
[2] = Molar enthalpy of transition or fusion; conditions: Crystal; DSC

With `CC(C)OC(=O)C(C)(C)Oc1ccc(C(=O)c2ccc(Cl)cc2)cc1` [fenofibrate] the Normal melting temperature [1] was 80.47 ± 1.1 °C and the “Molar enthalpy of transition or fusion” value [2] was 7.45 ± 0.167 kcal/mol.
